From patent US7041486B1, “Enzyme having decolorizing activity and method for decolorizing dyes by using the same” (Meiji Seika Kaisha Ltd., priority 1999, dated 2006)
“Also recorded” adds a separate entry of the source. Like-named read-outs stand apart in the source and are kept apart here.

Legend:
DyP [1] = assay: Assay of dye-degrading (decolorizing) activity of purified DyP; type: biochemical, Geotrichum candidum Dec 1; details: dyes of Table 1
Procedure: The dye-degrading spectrum of the purified DyP was examined for nine types of dyes and three model compounds. The activity of the purified DyP to degrade these dyes or model compounds was assayed by measuring the degradation rates.
As the dyes, use was made of Reactive blue 5, 19 and 114; AQ-1 and AQ-2; Reactive black 5, Reactive red 33, Reactive yellow 2, and Reactive blue 182.
The dye-degrading activity was measured as follows.
0.2 to 0.4 mM aqueous hydrogen peroxide was added to a mixture solution of 3 mL of 25 mM citrate buffer (adjusted to the optimum pH for the degradation of each of the dyes) containing each dye at a fixed […] (30 to 120 ppm) and 1 mL of 1.86 nM DyP solution, to initiate the enzyme reaction. Reaction was performed at 30° C. for a fixed period of time, to assay the reaction rate.
1 U of the dye-degrading activity was defined as the activity to decolorize 1 μmole Reactive blue 5 or AQ-2 for one minute.

DyP [2] = assay: Oxidation of model compounds by DyP (absorbance); type: biochemical, Geotrichum candidum Dec 1; details: for Oxidation rate: 2.79 nM DyP, 0.2 mM hydrogen peroxide, 25 mM citrate buffer, pH and initial concentration (mM) as in columns c2, c3, 470 nm or 465 nm; for Degradation by DyP (in words): model compounds of Table 2
Procedure: As the model compounds, additionally, use was made of 2,6-dimethoxyphenol, guaiacol and veratryl alcohol.
As to 2,6-dimethoxyphenol used as a model compound, alternatively, absorbance at 470 nm was calorimetrically measured, which emerged via oxidation.
That is to say, a mixture solution of 2.79 nM DyP and 0.2 mM 2,6-dimethoxyphenol was reacted with 25 mM citrate buffer (pH 4.5) containing 0.2 mM hydrogen peroxide.
As to guaiacol, 1 mM guaiacol was used in place of 0.2 mM 2,6-dimethoxyphenol, for absorbance measurement at 465 nm.

DyP [3] = type: biochemical, Geotrichum candidum Dec 1; details: for Specific activity (%): 100 ppm Reactive blue 5, no addition = 100
From the text: […], zinc, copper (divalent), potassium, iron (divalent) and sodium were concurrently present in a reaction solution comprising DyP and 100 ppm Reactive blue 5, so as to examine the effects of these metal ions on the relative activity of the DyP enzyme.

Isoelectric focusing = type: physicochemical; details: FIG. 2
Procedure: Then, the isoelectric point of the inventive enzyme was measured. The isoelectric point was measured by isoelectric focusing.
For measurement of isoelectric focusing, a low-pI calibration kit of Multiphor II 2-D for pH 2.5 to pH 6.5, manufactured by Pharmacia, Co. was used. Consequently, the isoelectric point of DyP was assayed as 3.8.

[4] = Temperature stability of peroxidase (remaining activity after storage); type: physicochemical; details: 25 mM citrate buffer
Procedure: After the inventive dye-degrading enzyme DyP was stored at a fixed temperature for a fixed period of time, the ratio of the remaining activity was subsequently evaluated. Specifically, a solution of the dye-degrading enzyme DyP in 25 mM citrate buffer was stored at 30° C. or 40° C. for 14 days.
So as to compare the temperature stability with those of other peroxidases, solutions of individual enzymes in 25 mM citrate buffer were stored at 60° C. for 3 hours, by using a commercially available horse-radish peroxidase (manufactured by Wako Chemical Co., Ltd.; sometimes abbreviated as HRP hereinafter) as the control. Subsequently, the remaining enzyme activities were compared to each other.

For `Nc1c(S(=O)(=O)[O-])cc(Nc2ccc(S(=O)(=O)[O-])c(Nc3nc(Cl)nc(Nc4cccc(S(=O)(=O)[O-])c4)n3)c2)c2c1C(=O)c1ccccc1C2=O.[Na+].[Na+].[Na+]` [Reactive blue 5], the “Degradation by DyP (in words)” value (DyP [1]) was “excellent degradation activity”.

With `COc1ccccc1O` [Guaiacol, guaiacol] the Oxidation rate (DyP [2]) was 0.29 ΔOD/min and the “Degradation by DyP (in words)” value (DyP [2]) was “could efficiently be degraded”.

For `COc1ccc(CO)cc1OC` [Veratryl alcohol, veratryl alcohol], the “Degradation by DyP (in words)” value (DyP [2]) was “could never degrade; also recorded: no reaction”.

For `[Fe+2]` [Fe^++, iron (divalent)], the “Inhibition of DyP activity” value (DyP [3]; ion concurrently present at 0.2 mM) was 50% and the “Specific activity (%)” value (DyP [3]; metal ion 0.2 mM) was 50%.

For `[Na+]` [Na^+, sodium], the “Specific activity (%)” value (DyP [3]; metal ion 5 mM) was 81%.

For `[K+]` [K^+, potassium], the “Specific activity (%)” value (DyP [3]; metal ion 5 mM) was 81%.

For `Nc1c(S(=O)(=O)[O-])cc(Nc2cccc(S(=O)(=O)CCOS(=O)(=O)[O-])c2)c2c1C(=O)c1ccccc1C2=O.[Na+].[Na+]` [Reactive blue 19], the “Degradation by DyP (in words)” value (DyP [1]) was “excellent degradation activity”.

With Reactive blue 182 the “Degradation by DyP (in words)” value (DyP [1]) was “efficiently degraded”.

In the case of `[Cu+2]` [Cu^++, copper (divalent)], the “Specific activity (%)” value (DyP [3]; metal ion 5 mM) is reported as 75%.

In the case of `[Ca+2]` [Ca^++, calcium], the “Specific activity (%)” value (DyP [3]; metal ion 5 mM) is reported as 81%.

With `COc1cccc(OC)c1O` [2,6-Dimethoxyphenol, 2,6-dimethoxyphenol] the Oxidation rate (DyP [2]) was 0.29 ΔOD/min and the “Degradation by DyP (in words)” value (DyP [2]) was “could efficiently be degraded”.

With `CNc1cc(S(=O)(=O)[O-])c(N)c2c1C(=O)c1ccccc1C2=O.[Na+]` [AQ-2, 1-amino-4-methylamino-2-sodium-anthraquinone sulfonate] the “Degradation by DyP (in words)” value (DyP [1]) was “excellent degradation activity”.

In the case of `[Zn+2]` [Zn^++, zinc], the “Specific activity (%)” value (DyP [3]; metal ion 5 mM) is reported as 69%.

B1: DyP: peroxidase derived from Geotrichum candidum Dec 1 strain (FERM BP-7033), amino acid sequence SEQ ID NO. 7 (protein, listed as Geotrichum candidum)
chain: MDLSLFVVSVAVLVGSSSHVNAAKLGARQTRTTPLLTNFPGQAPLPTLTQHTTESGANDTILPLNNIQGDILVGMKKQKERFVFFQVNDATSFKTALKTYVPQRITSAAILISDPSQQPLAFVNLGFSNTGLQALGITDDLGDAQFPDGQFADAANLGDDLSQWVAPFTGTTIHGVFLIGSDQDDFLDQFTDDISSTFGSSITQVQALSGSARPGDQAGHEHFGFLDGISQPSVTGWETTVFPGQAVVPPGIILTGRDGDTGTRPSWALDGSFMAFRHFQQKVPEFNAYTLANAIPANSAGNLTQQEGAEFLGARMFGRWKSGAPIDLAPTADDPALGADPQRNNNFDYSDTLTDETRCPFGAHVRKTNPRQDLGGPVDTFHAMRSSIPYGPETSDAELASGVTAQDRGLLFVEYQSIIGNGFRFQQINWANNANFPFSKPITPGIEPIIGQTTPRTVGGLDPLNQNETFTVPLFVIPKGGEYFFLPSISALTATIAA
In the case of B1, the “Isoelectric point (pI)” value (Isoelectric focusing) is reported as 3.8, the Remaining enzyme activity ([4]; stored at 30° C. for 14 days) is reported as 63% and the Remaining enzyme activity ([4]; stored at 40° C. for 14 days) is reported as 41%. The Remaining enzyme activity ([4]; stored at 60° C. for 3 hours) was 65%.
